This note sets out measurements from publication PMC8799717, “Pharmacological targeting PIKfyve and tubulin as an effective treatment strategy for double-hit lymphoma” (Cell Death Discovery, 2022).

Among the targets are ALK(C1156Y) (Homo sapiens, UniProt Q9UM73, C1156Y); BMX (Homo sapiens, UniProt P51813); CAMK1 (Homo sapiens, UniProt Q14012); CAMK4 (Homo sapiens, UniProt Q16566); CDK7 (Homo sapiens, UniProt P50613); DYRK2 (Homo sapiens, UniProt Q92630); EIF2AK1 (Homo sapiens, UniProt Q9BQI3); FGFR3(G697C) (Homo sapiens, UniProt P22607, G697C); FLT3-autoinhibited (Homo sapiens, UniProt P36888); IRAK3 (Homo sapiens, UniProt Q9Y616); MAK (Homo sapiens, UniProt P20794); MTOR (Homo sapiens, UniProt P42345); NEK2 (Homo sapiens, UniProt P51955); PDGFRA (Homo sapiens, UniProt P16234); RIPK4 (Homo sapiens, UniProt P57078); ULK2 (Homo sapiens, UniProt Q8IYT8).

Assay in all cases: biochemical
Design in all cases: KINOMEscan active-site-directed competition binding panel, 468 kinases, percent of DMSO control at 1 uM
Details in all cases: KINOMEscan binding, percent of DMSO control; read-out: Ctrl%

For a further assay, the target named is T1, ABL1-nonphosphorylated (Homo sapiens, UniProt P00519).
T1 construct: nonphosphorylated

In another assay the target is T2, GCN2(Kin.Dom.2,S808G) (Homo sapiens, UniProt Q9P2K8, S808G).
T2 construct: gene EIF2AK4; Kin.Dom.2

Another assay deals with T3, HPK1 (Homo sapiens, UniProt Q92918).
T3 construct: gene MAP4K1

In assay [1] the target is T4, JAK3(JH1domain-catalytic) (Homo sapiens, UniProt P52333).
T4 construct: JH1domain-catalytic

For a further assay, the target named is T5, JNK2 (Homo sapiens, UniProt P45984).
T5 construct: gene MAPK9

The next assay concerns the target T6, NIK (Homo sapiens, UniProt Q99558).
T6 construct: gene MAP3K14

In another assay the target is T7, SIK (Homo sapiens, UniProt P57059).
T7 construct: gene SIK1

The next assay deals with T8, VEGFR2 (Homo sapiens, UniProt P35968).
T8 construct: gene KDR

Chain of NEK2 (P51955 whole entry): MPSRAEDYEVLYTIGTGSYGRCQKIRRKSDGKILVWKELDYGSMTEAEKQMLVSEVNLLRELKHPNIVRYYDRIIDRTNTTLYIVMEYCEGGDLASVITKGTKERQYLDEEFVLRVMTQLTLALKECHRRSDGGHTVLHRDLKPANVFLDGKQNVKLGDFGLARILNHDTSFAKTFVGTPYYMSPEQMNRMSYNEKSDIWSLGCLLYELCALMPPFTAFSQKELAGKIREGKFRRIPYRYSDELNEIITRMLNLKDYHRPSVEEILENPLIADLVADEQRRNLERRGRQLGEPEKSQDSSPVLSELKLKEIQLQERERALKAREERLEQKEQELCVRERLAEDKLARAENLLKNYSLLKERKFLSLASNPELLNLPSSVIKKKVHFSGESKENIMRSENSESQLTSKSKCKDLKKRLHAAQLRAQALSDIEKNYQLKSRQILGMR
T1 sequence (P00519 whole entry): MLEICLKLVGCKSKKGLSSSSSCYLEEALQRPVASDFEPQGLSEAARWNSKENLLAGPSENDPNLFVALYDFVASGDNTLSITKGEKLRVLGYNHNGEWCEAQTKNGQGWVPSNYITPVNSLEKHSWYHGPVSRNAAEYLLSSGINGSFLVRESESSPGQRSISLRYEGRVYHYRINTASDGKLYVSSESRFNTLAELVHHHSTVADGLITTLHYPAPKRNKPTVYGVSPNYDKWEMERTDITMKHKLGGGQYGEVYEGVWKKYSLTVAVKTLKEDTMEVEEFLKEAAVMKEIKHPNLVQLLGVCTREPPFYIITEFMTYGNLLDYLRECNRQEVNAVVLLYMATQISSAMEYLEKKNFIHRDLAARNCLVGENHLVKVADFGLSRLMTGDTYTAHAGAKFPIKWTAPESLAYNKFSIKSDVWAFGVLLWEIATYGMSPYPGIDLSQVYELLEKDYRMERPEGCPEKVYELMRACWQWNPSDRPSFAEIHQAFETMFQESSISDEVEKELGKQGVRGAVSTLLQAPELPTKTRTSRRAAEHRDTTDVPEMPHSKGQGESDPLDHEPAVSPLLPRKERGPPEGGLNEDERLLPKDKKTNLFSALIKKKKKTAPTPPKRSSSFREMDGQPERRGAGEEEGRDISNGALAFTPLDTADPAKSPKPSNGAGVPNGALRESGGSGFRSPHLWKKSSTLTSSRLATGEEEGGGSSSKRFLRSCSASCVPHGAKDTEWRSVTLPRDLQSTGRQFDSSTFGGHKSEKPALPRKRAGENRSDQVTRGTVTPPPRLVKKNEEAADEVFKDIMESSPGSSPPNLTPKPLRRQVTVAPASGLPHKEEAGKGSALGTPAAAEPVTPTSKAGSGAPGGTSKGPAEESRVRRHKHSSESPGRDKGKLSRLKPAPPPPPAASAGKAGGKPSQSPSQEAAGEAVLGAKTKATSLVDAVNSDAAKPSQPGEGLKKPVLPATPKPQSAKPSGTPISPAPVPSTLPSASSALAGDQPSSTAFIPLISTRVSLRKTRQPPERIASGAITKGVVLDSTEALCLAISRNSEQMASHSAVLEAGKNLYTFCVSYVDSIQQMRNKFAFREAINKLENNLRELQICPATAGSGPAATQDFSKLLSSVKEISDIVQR
Chain of FLT3-autoinhibited (P36888 whole entry): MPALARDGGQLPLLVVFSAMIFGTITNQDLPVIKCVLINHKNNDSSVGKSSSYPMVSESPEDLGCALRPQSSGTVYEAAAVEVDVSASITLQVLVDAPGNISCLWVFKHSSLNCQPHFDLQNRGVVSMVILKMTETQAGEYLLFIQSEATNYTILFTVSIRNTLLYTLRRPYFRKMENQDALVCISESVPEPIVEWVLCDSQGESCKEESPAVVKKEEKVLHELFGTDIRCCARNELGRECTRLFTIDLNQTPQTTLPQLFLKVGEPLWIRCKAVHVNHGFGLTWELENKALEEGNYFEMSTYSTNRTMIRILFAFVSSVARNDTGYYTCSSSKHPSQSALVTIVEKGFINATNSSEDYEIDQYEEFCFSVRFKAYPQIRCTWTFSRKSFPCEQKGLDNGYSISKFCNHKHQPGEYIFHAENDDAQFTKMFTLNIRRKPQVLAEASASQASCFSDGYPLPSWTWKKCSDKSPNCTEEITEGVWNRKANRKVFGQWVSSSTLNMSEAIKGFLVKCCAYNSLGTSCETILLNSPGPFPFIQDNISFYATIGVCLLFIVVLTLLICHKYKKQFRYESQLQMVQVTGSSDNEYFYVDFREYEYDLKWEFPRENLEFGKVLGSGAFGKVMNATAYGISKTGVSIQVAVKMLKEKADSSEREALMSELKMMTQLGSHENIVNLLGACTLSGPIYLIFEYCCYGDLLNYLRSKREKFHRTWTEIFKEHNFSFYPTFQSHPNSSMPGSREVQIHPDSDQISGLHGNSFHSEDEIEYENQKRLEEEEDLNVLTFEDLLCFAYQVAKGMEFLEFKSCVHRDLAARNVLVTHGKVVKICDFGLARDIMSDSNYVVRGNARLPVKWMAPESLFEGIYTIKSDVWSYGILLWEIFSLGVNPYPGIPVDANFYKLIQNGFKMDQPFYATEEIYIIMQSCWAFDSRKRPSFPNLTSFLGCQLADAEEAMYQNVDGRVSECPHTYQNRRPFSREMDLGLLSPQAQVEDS
Chain of CDK7 (P50613 whole entry): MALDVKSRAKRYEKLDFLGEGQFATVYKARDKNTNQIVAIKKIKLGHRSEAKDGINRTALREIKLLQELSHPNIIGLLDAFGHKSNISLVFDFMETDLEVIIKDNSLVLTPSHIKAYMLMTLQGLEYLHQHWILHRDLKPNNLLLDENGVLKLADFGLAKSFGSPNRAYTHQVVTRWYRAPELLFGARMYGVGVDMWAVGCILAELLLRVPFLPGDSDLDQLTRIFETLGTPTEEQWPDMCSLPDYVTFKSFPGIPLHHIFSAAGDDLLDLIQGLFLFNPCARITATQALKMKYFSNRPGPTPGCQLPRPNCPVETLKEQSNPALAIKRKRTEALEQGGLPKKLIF
T6 sequence (Q99558 whole entry): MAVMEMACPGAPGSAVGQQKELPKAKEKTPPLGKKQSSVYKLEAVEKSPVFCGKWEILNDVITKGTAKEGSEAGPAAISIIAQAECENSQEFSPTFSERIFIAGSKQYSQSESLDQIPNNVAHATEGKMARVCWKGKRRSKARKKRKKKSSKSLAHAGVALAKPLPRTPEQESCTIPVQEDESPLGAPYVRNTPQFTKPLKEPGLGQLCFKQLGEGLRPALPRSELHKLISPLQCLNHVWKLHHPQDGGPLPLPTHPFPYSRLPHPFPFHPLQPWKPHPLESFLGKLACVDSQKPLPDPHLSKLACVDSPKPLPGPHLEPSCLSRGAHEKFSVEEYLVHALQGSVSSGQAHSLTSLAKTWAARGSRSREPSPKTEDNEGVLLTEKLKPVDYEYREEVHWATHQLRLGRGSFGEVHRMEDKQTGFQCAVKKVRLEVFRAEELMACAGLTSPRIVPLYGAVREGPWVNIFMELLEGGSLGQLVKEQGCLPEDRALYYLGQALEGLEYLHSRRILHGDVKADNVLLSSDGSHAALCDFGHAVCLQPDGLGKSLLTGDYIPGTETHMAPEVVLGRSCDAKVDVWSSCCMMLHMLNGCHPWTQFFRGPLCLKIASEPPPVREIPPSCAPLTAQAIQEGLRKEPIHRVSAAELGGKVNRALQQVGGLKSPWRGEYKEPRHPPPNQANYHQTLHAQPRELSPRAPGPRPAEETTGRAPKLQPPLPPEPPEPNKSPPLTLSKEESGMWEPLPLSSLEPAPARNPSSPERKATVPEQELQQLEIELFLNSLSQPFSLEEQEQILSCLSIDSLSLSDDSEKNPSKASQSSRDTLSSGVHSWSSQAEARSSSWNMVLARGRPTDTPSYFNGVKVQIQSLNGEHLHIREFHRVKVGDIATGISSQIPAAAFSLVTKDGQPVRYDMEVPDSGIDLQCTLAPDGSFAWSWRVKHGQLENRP
Chain of CAMK1 (Q14012 whole entry): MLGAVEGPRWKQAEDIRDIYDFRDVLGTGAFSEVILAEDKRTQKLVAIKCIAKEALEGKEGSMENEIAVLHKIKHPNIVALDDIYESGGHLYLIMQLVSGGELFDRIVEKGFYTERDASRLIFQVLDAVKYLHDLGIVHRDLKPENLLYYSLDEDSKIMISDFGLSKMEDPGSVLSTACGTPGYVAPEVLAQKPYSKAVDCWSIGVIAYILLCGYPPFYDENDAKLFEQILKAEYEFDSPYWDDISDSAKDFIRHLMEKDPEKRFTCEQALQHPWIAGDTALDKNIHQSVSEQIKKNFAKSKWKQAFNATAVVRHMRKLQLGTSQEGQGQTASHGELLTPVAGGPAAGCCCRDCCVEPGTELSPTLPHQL
Chain of BMX (P51813 whole entry): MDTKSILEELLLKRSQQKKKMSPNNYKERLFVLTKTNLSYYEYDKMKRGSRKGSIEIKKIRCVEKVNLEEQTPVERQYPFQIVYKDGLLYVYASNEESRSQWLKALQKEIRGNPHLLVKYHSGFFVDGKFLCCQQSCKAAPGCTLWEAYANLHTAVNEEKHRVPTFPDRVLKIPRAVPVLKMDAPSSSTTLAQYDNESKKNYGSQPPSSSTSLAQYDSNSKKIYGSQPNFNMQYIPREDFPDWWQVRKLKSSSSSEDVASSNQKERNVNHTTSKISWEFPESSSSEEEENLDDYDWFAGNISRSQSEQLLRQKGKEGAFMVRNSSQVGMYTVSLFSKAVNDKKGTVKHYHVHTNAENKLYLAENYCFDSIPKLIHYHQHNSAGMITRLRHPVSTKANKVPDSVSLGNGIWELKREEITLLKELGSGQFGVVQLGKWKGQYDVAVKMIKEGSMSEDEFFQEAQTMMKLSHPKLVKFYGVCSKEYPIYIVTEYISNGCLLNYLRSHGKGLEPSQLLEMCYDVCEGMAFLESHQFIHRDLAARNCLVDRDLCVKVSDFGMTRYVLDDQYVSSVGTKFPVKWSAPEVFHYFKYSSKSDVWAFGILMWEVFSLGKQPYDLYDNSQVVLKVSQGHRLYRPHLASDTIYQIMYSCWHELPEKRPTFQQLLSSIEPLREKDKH

Turning to `Cc1ccc(NC(=O)c2cccc(C(F)(F)F)c2)cc1Nc1cc(-c2cccnc2)nc2[nH]ccc12` [HZX-02-059], the remaining binding at 1 µM on ABL1-nonphosphorylated turned out to be 14%; on ALK(C1156Y) it was 99%; at BMX, 80%; at CAMK1 it was 100%; on CAMK4, 83%; on CDK7, 69%. Besides, the remaining binding at 1 µM was determined as 88% at DYRK2; 79% on EIF2AK1; 100% on FGFR3(G697C); 98% at FLT3-autoinhibited; 100% on GCN2(Kin.Dom.2,S808G); 72% on HPK1. Also, the remaining binding at 1 µM was 92% on IRAK3; 100% in assay [1]; 99% on JNK2; 95% at MAK; 99% on MTOR; 66% on NEK2. In addition, the remaining binding at 1 µM at NIK worked out at 61%; at PDGFRA it was 66%; at RIPK4 it was 75%; on SIK, 90%; at ULK2, 99%; on VEGFR2, 100%.
